Measured values published in ChEMBL document CHEMBL1201862, “PubChem BioAssay data set” (2004).
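1) Cells in 96-well plates. 2) Compound, 48 h, 5 concentrations. 3) Linear interpolation between surrounding doses. 4) Unreached endpoint = highest concentration. At the GI50, growth is halved.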 The source made the active and inactive calls. Cut-off read from the data, not from the text of the source: active = GI50 up to about 1.1 µM and inactive = higher.

Columns and labels:
Assay in all cases: NCI-60 cell line screen, 48 h
[1] = system: SF-268
[2] = system: EKVX
[3] = system: OVCAR-8
[4] = system: UACC-257
[5] = system: SN12C
[6] = system: COLO 205
[7] = system: 786-0
[8] = system: M14
[9] = system: SF-295
[10] = system: HCT-116
[11] = system: NCI-H460
[12] = system: KM12
[13] = system: HL-60
[14] = system: SK-MEL-28
[15] = system: MOLT-4
[16] = system: SR

Measured: GI50

Cn1c(=O)nc2n(-c3cccc(Br)c3)c3ccccc3nc-2c1=O
inactive: [1] 8.91 µM | [2] 3.79 µM | [3] 3.56 µM | [4] 2.09 µM | [5] 4.78 µM | [6] 1.68 µM | [7] 3.71 µM | [8] 2.81 µM | [9] 5.73 µM | [10] 4.35 µM | [11] 2.96 µM | [12] 4.8 µM | [13] 2.54 µM

CCOC(=O)C1(C(=O)OCC)OC(=O)NC2=C1CCCC2
inactive: [1] > 100 µM | [2] > 100 µM | [3] > 100 µM | [4] > 100 µM | [14] > 100 µM | [6] > 100 µM | [7] > 100 µM | [15] > 100 µM | [9] > 100 µM | [10] > 100 µM | [11] > 100 µM | [12] > 100 µM | [13] > 100 µM

Cc1ccc(C(=O)C(C2=Nc3nnc(N)n3C2=O)C2=Nc3nnc(N)n3C2=O)cc1
inactive: [1] > 100 µM | [2] > 100 µM | [3] > 100 µM | [4] > 100 µM | [14] > 100 µM | [5] > 100 µM | [6] > 100 µM | [7] > 100 µM | [8] > 100 µM | [15] > 100 µM | [9] > 100 µM | [11] > 100 µM | [12] > 100 µM | [13] > 100 µM

CC(C)N/C(N)=N/C#N
inactive: [1] > 100 µM | [2] > 100 µM | [3] > 100 µM | [4] > 100 µM | [5] > 100 µM | [6] > 100 µM | [8] > 100 µM | [15] > 100 µM | [9] > 100 µM | [10] > 100 µM | [11] > 100 µM | [12] > 100 µM | [13] > 100 µM

CC(=O)Nc1ccccc1Sc1ccccc1
inactive: [1] 72.9 µM | [2] > 100 µM | [3] > 100 µM | [4] > 100 µM | [14] > 100 µM | [5] > 100 µM | [6] > 100 µM | [7] > 100 µM | [8] > 100 µM | [15] > 100 µM | [9] > 100 µM | [10] > 100 µM | [11] > 100 µM | [12] > 100 µM | [13] > 100 µM

CC1SC2=NC3=C(c4ccccc4C3=O)C(c3ccc(Br)cc3)N2C1=O (configuration not stated)
inactive: [1] 37.9 µM | [2] 60 µM | [3] 47.3 µM | [4] > 100 µM | [14] 43 µM | [5] 37.8 µM | [6] 90.2 µM | [7] 64.4 µM | [8] 96.4 µM | [15] 31.6 µM | [9] 56.9 µM | [11] > 100 µM | [12] > 100 µM | [13] 22.4 µM

CCc1cccc(C)c1NC(=O)C(=O)Cc1nc2ccccc2o1
inactive: [1] > 100 µM | [2] > 100 µM | [3] > 100 µM | [4] > 100 µM | [16] > 100 µM | [14] > 100 µM | [5] > 100 µM | [6] > 100 µM | [7] > 100 µM | [8] > 100 µM | [15] > 100 µM | [9] > 100 µM | [10] > 100 µM | [11] > 100 µM | [13] > 100 µM

C#CC1(O)c2ccccc2C(=O)c2ccccc21
inactive: [1] > 100 µM | [2] > 100 µM | [3] > 100 µM | [4] > 100 µM | [16] > 100 µM | [14] > 100 µM | [5] > 100 µM | [6] > 100 µM | [7] > 100 µM | [15] > 100 µM | [9] > 100 µM | [10] > 100 µM | [11] > 100 µM | [12] > 100 µM | [13] > 100 µM

CCN(CC)CCNc1ccc2nnn3c4ccc(OC)cc4c(=O)c1c23
inactive: [1] 7.33 µM | [3] 4.31 µM | [4] 12.5 µM | [16] 1.59 µM | [14] 15.6 µM | [5] 5.96 µM | [6] 6.5 µM | [7] 4.31 µM | [8] 10.5 µM | [15] 1.93 µM | [9] 5.14 µM | [10] 2.16 µM | [11] 3.17 µM | [12] 3.27 µM | [13] 3.94 µM

CCOC(=O)CC1=N/C(=N/C(=N)N[N+](=O)[O-])SC1
inactive: [1] > 100 µM | [2] > 100 µM | [3] > 100 µM | [4] > 100 µM | [14] > 100 µM | [5] > 100 µM | [6] > 100 µM | [7] > 100 µM | [8] > 100 µM | [9] > 100 µM | [10] > 100 µM | [11] > 100 µM | [12] > 100 µM | [13] > 100 µM

O=[N+]([O-])c1nccn1CC(O)c1ccc(F)cc1 (configuration not stated)
inactive: [1] > 100 µM | [2] > 100 µM | [3] > 100 µM | [4] > 100 µM | [14] > 100 µM | [5] > 100 µM | [6] > 100 µM | [7] > 100 µM | [8] > 100 µM | [15] > 100 µM | [9] > 100 µM | [11] > 100 µM | [12] > 100 µM | [13] > 100 µM

O=C1O[C@@H](c2ccccc2)C[C@H]1CN1CCOCC1
inactive: [1] > 100 µM | [2] > 100 µM | [3] > 100 µM | [4] > 100 µM | [14] > 100 µM | [5] > 100 µM | [6] 97.5 µM | [7] 28.2 µM | [8] > 100 µM | [15] 33 µM | [9] > 100 µM | [11] > 100 µM | [12] 89.5 µM | [13] 24.6 µM

CCCCCN(CCCCC)C(=O)[C@@H](CCC(=O)OCc1ccccc1)NC(=O)c1cc2ccccc2[nH]1
inactive: [1] > 100 µM | [2] > 100 µM | [3] 6.15 µM | [4] 39.3 µM | [14] > 100 µM | [5] > 100 µM | [6] 6.18 µM | [7] > 100 µM | [8] > 100 µM | [9] > 100 µM | [10] > 100 µM | [11] > 100 µM | [12] 7.67 µM

CC1(Br)CC2OC3(Br)C=CC(C)(O)C2(CC1=O)C3(C)C (configuration not stated)
inactive: [1] > 100 µM | [2] > 100 µM | [3] > 100 µM | [4] > 100 µM | [16] 82.4 µM | [14] > 100 µM | [5] > 100 µM | [6] > 100 µM | [7] > 100 µM | [8] > 100 µM | [15] > 94 µM | [9] > 100 µM | [10] > 92 µM | [11] > 100 µM | [12] > 100 µM
